The data set is described as follows: Short-term stability in spiked pooled human plasma (bench-top, 4 °C, 56 °C).

For the molecule `CNC(=O)c1ccc(N2C(=S)N(c3ccc(C#N)c(C(F)(F)F)c3)C(=O)C2(C)C)cc1F` [Enzalutamide], for the setting “validation standard 2xLLOV”, the “Short-time stability (1h, 56°C) Accuracy [%]” value amounted to 59.4%; the “Short-time stability (24h, 4°C, without daylight) Accuracy [%]” value is 103.3%; the “Short-time stability (24h, RT, with daylight) Accuracy [%]” value came out at 106.1%; the “Short-time stability (24h, RT, without daylight) Accuracy [%]” value came to 108.3%. Under “validation standard LLOV”, the “Short-time stability (1h, 56°C) Accuracy [%]” value is given as 50.0%; the “Short-time stability (24h, 4°C, without daylight) Accuracy [%]” value came to 102.0%; the “Short-time stability (24h, RT, with daylight) Accuracy [%]” value is listed as 100.4%; the “Short-time stability (24h, RT, without daylight) Accuracy [%]” value is listed as 103.0%. Also, for the setting “validation standard MOV”, the “Short-time stability (1h, 56°C) Accuracy [%]” value is given as 58.9%; the “Short-time stability (24h, 4°C, without daylight) Accuracy [%]” value is recorded as 98.9%; the “Short-time stability (24h, RT, with daylight) Accuracy [%]” value is listed as 108.7%; the “Short-time stability (24h, RT, without daylight) Accuracy [%]” value amounted to 107.8%. In addition, under “validation standard ULOV”, the “Short-time stability (1h, 56°C) Accuracy [%]” value stood at 50.9%; the “Short-time stability (24h, 4°C, without daylight) Accuracy [%]” value came to 95.8%; the “Short-time stability (24h, RT, with daylight) Accuracy [%]” value is recorded as 103.4%; the “Short-time stability (24h, RT, without daylight) Accuracy [%]” value came out at 103.8%.
Take `C[C@@H](Oc1cc(-c2cnn(C3CCNCC3)c2)cnc1N)c1c(Cl)ccc(F)c1Cl` [Crizotinib]: the “Short-time stability (24h, RT, with daylight) Accuracy [%]” value amounted to 85.9% (validation standard 2xLLOV), 62.9% (validation standard LLOV), 95.3% (validation standard MOV) and 85.2% (validation standard ULOV). The “Short-time stability (24h, RT, without daylight) Accuracy [%]” value (validation standard 2xLLOV) was determined as 92.4%; the “Short-time stability (24h, RT, without daylight) Accuracy [%]” value (validation standard LLOV) was 71.2%; the “Short-time stability (24h, RT, without daylight) Accuracy [%]” value (validation standard MOV) came to 99.8%; the “Short-time stability (24h, RT, without daylight) Accuracy [%]” value (validation standard ULOV) was determined as 89.5%.
